{"source": "PubChem BioAssay AID1205", "about": "(EPA DSSTox, 2008)", "note": "Activity calls are given as the source filed them.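 The calls were made as follows: active = tumour findings in long-term animal cancer tests in more than one sex, species or organ; inactive = no tumour finding and more than one negative test.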"}
{"assay": "DSSTox (CPDBAS) Carcinogenic Potency Database Summary MultiCellCall Results", "conditions": "animal carcinogenicity bioassays, multi-cell call summary", "description": "The Carcinogenic Potency Database (CPDB) is a unique and widely used international resource of the results of over 6500 chronic, long-term animal cancer tests on over 1500 chemical substances. The CPDB provides easy access to the bioassay literature, with qualitative and quantitative analyses of both positive and negative experiments that have been published over the past 50 years in the general literature and by the National Cancer Institute/National Toxicology Program. The CPDB standardizes the diverse literature of cancer bioassays that vary widely in protocol, histopathological examination and nomenclature, and in the published author's choices of what information to provide in their papers. Results are reported in the CPDB for tests in rats, mice, hamsters, dogs, and nonhuman primates, and are based on the most positive result among all experiments for each sex-species. The DSSTox CPDBAS (all species) file incorporates data from the CPDB Summary Tables for the full list of over 1500 chemical substances tested in at least one species. A summary MultiCellCall, based on experimental bioassay results of one or more species, is provided in the DSSTox CPDBAS file (see Source URL) for more than 1150 chemical substances.\nAssociated TD50 values and tumor site details for the relevant species/sex experiment supporting the overall CPDBAS MultiSiteCall are provided in the full DSSTox CPDBAS file (see Comment) and the corresponding CPDBAS Species Bioassay in PubChem. ActivityScore is computed as follows: multispecies=50, multisex=30, multisite=20, with combination scores computed as sums of these values, e.g. multispecies+multisite=70."}
{"smiles": "CN1CCCC1=O", "outcome": "active; multisex active"}
{"smiles": "CC1CN(N=O)C(=O)NC1=O", "note": "(stereo unspecified)", "outcome": "inactive; multisex inactive"}
{"smiles": "CN(CCCC(=O)c1cccnc1)N=O", "outcome": "active; multisite active"}
{"smiles": "CN(N=O)C(=O)N[C@@H]1[C@@H](O)[C@H](O)[C@@H](CO)O[C@@H]1O", "outcome": "active; multisite active; multisex active; multispecies active"}
{"smiles": "Cc1cccc(Nc2cc(Cl)nc(SCC(=O)NCCO)n2)c1C", "outcome": "active; multisex active; multispecies active"}
{"smiles": "CCC(O)OC(O)CC", "note": "(stereo unspecified)", "outcome": "inactive; multisex inactive; multispecies inactive"}
{"smiles": "NC(=O)OCC(COC(N)=O)c1ccccc1", "outcome": "active; multisite active; multisex active; multispecies active"}
{"smiles": "Cc1ccc2ncccc2c1", "outcome": "inactive; multisex inactive"}
{"smiles": "CC(=O)NNC(=O)c1ccncc1", "outcome": "active; multisex active"}
{"smiles": "CCOP(=S)(OCC)Oc1nc(Cl)c(Cl)cc1Cl", "outcome": "inactive; multisex inactive"}
{"smiles": "NNC(N)=O", "outcome": "active; multisite active; multisex active"}
{"smiles": "CC(=O)NNc1ccc(CO)cc1", "outcome": "active; multisite active; multisex active"}
{"smiles": "ClC1C2(Cl)C3C4C5OC5C5C4C1(Cl)C(Cl)(C53)C2(Cl)Cl", "note": "(stereo unspecified)", "outcome": "inactive; multisex inactive; multispecies inactive"}
{"smiles": "COc1cccc2c1cc([N+](=O)[O-])c1c(C(=O)O)cc3c(c12)OCO3", "outcome": "active; multisex active"}
{"smiles": "C=CC#N", "outcome": "active; multisite active; multisex active"}
{"smiles": "CN(C)c1ccc(C(=O)c2ccc(N(C)C)cc2)cc1", "outcome": "active; multisite active; multisex active; multispecies active"}
{"smiles": "COc1cc(CNC(=O)CCCC/C=C/C(C)C)ccc1O", "outcome": "active; multisex active"}
{"smiles": "O=C(O)CCl", "outcome": "inactive; multisex inactive; multispecies inactive"}
{"smiles": "C=CCN(CC(C)=O)N=O", "outcome": "active; multisite active; multispecies active"}
{"smiles": "FC(F)(Cl)C(F)(Cl)Cl", "outcome": "inactive; multisex inactive"}
{"smiles": "CCc1ccccc1", "outcome": "active; multisite active; multisex active; multispecies active"}
{"smiles": "OC[C@H]1O[C@H](O[C@]2(CCl)O[C@H](CCl)[C@@H](O)[C@@H]2O)[C@H](O)[C@@H](O)[C@H]1Cl", "outcome": "inactive; multisex inactive"}
{"smiles": "C=CCO", "outcome": "inactive; multisex inactive"}
{"smiles": "O=NN1CCC[C@H]1C(=O)O", "outcome": "inactive; multisex inactive"}
{"smiles": "O=[N+]([O-])c1ccc2c3c(cccc13)CC2", "outcome": "active; multisite active; multisex active; multispecies active"}
{"smiles": "O=Cc1ccco1", "outcome": "active; multisex active; multispecies active"}
{"smiles": "CC(=O)CN(CC(O)CO)N=O", "note": "(stereo unspecified)", "outcome": "active; multisite active; multispecies active"}
{"smiles": "CC(O)C(=O)O", "note": "(stereo unspecified)", "outcome": "inactive; multisex inactive"}
{"smiles": "CCN(Cc1cccc(S(=O)(=O)O)c1)c1ccc(C(=C2C=CC(=[N+](CC)Cc3cccc(S(=O)(=O)O)c3)C=C2)c2ccc(O)cc2S(=O)(=O)[O-])cc1", "outcome": "inactive; multisex inactive; multispecies inactive"}
{"smiles": "O=C(O)c1ccc(N=Nc2ccc(O)c(C(=O)O)c2)cc1", "outcome": "inactive; multisex inactive; multispecies inactive"}
{"smiles": "C#C[C@]1(O)CC[C@H]2[C@@H]3CCc4cc(OC)ccc4[C@H]3CC[C@@]21C", "outcome": "inactive; multisex inactive"}
{"smiles": "CCC[N+](=O)[O-]", "outcome": "inactive; multisex inactive"}
{"smiles": "COc1ccc(C)cc1N", "outcome": "active; multisite active; multisex active; multispecies active"}
{"smiles": "CC(=O)CN(CC(C)=O)N=O", "outcome": "active; multisite active; multisex active"}
{"smiles": "Cc1cc(Cc2ccc(N)c(C)c2)ccc1N", "outcome": "active; multisite active; multisex active"}
{"smiles": "CC(O)CN(CC(O)CO)N=O", "note": "(stereo unspecified)", "outcome": "active; multisite active; multispecies active"}
{"smiles": "O=[N+]([O-])c1ccc(Oc2ccc(Cl)cc2Cl)cc1", "outcome": "active; multisite active; multisex active; multispecies active"}
{"smiles": "C=C1C[C@]23C[C@@]1(O)CC[C@H]2[C@@]12C=C[C@H](O)[C@@](C)(C(=O)O1)[C@H]2[C@@H]3C(=O)O", "outcome": "inactive; multisex inactive"}
{"smiles": "CC1CN(N=O)CC(C)N1C", "note": "(stereo unspecified)", "outcome": "active; multisite active; multisex active; multispecies active"}
{"smiles": "CC1(C)S[C@@H]2[C@H](NC(=O)COc3ccccc3)C(=O)N2[C@H]1C(=O)O", "outcome": "inactive; multisex inactive; multispecies inactive"}
{"smiles": "C1N2CN3CN1CN(C2)C3", "outcome": "inactive; multisex inactive; multispecies inactive"}
{"smiles": "Nc1ccc(-c2ccccc2)cc1", "outcome": "active; multisite active; multisex active"}
{"smiles": "[O-][Br+2]([O-])O", "outcome": "active; multisite active; multisex active; multispecies active"}
{"smiles": "Nc1nc(/C=C/c2ccc([N+](=O)[O-])o2)no1", "outcome": "active; multisite active; multisex active"}
{"smiles": "OCC(O)CCl", "note": "(stereo unspecified)", "outcome": "inactive; multisex inactive"}
{"smiles": "ClCC(Cl)(Cl)Cl", "outcome": "active; multisex active"}
{"smiles": "[O-]/[N+](=N\\O)c1ccccc1", "outcome": "active; multisite active; multisex active; multispecies active"}
{"smiles": "O=S(=O)(O)NC1CCCCC1", "outcome": "active; multisite active; multisex active"}
{"smiles": "O=NN1CC=CCC1", "outcome": "active; multisite active"}
{"smiles": "O=C1CCc2ccccc2O1", "outcome": "active; multisite active; multisex active; multispecies active"}
{"smiles": "O=CCCCC=O", "outcome": "inactive; multisex inactive; multispecies inactive"}
{"smiles": "CCCCN(N=O)C(N)=O", "outcome": "active; multisite active; multisex active"}
{"smiles": "COc1ccccc1N", "outcome": "active; multisite active; multisex active; multispecies active"}
{"smiles": "O=C1CCCO1", "outcome": "inactive; multisex inactive; multispecies inactive"}
{"smiles": "CCCCC1(COC(=O)CCC(=O)O)C(=O)N(c2ccccc2)N(c2ccccc2)C1=O", "outcome": "inactive; multisex inactive"}
{"smiles": "NC(=O)CCCCn1ccc(NC(N)=NCC(F)(F)F)n1", "outcome": "active; multisex active; multispecies active"}
{"smiles": "ClC1=C(Cl)C2(Cl)C3C(Cl)OC(Cl)C3C1(Cl)C2(Cl)Cl", "note": "(stereo unspecified)", "outcome": "inactive; multisex inactive"}
{"smiles": "Nc1ccc(N=Nc2ccc(-c3ccc(N=Nc4c(S(=O)(=O)O)cc5cc(S(=O)(=O)O)c(N=Nc6ccccc6)c(O)c5c4N)cc3)cc2)c(N)c1", "outcome": "active; multisite active; multisex active; multispecies active"}
{"smiles": "O=C1CN(/N=C/c2ccc([N+](=O)[O-])o2)C(=O)N1", "outcome": "active; multisite active; multisex active; multispecies active"}
{"smiles": "C=CCc1ccc(O)c(OC)c1", "outcome": "inactive; multisex inactive; multispecies inactive"}
{"smiles": "N[C@@H](Cc1ccc(N(CCCl)CCCl)cc1)C(=O)O", "outcome": "active; multisite active; multisex active; multispecies active"}
{"smiles": "c1ccc(N=Nc2ccccc2)cc1", "outcome": "active; multisite active; multisex active"}
{"smiles": "CCN(CC)C(=S)SSC(=S)N(CC)CC", "outcome": "inactive; multisex inactive; multispecies inactive"}
{"smiles": "FC(F)(F)CCl", "outcome": "active; multisite active; multisex active"}
{"smiles": "ClC1(Cl)C2(Cl)C3(Cl)C4(Cl)C(Cl)(Cl)C5(Cl)C3(Cl)C1(Cl)C5(Cl)C24Cl", "note": "(stereo unspecified)", "outcome": "active; multisite active; multisex active; multispecies active"}
{"smiles": "Nc1ccc(N)c2c1C(=O)c1c(N)ccc(N)c1C2=O", "outcome": "active; multisex active"}
{"smiles": "CCN(CC)C(=O)c1cccc(C)c1", "outcome": "inactive; multisex inactive; multispecies inactive"}
{"smiles": "C=C1C(C)(C)[C@@]2(Cl)C(Cl)[C@]1(Cl)C(Cl)(Cl)C2(Cl)Cl", "note": "(stereo partly specified)", "outcome": "active; multisite active"}
{"smiles": "CCCN=[N+]([O-])CCC", "outcome": "active; multisite active"}
{"smiles": "COc1ccc(N)cc1", "outcome": "inactive; multisex inactive; multispecies inactive"}
{"smiles": "O.O.O.O.O=C([O-])CC(O)(CC(=O)[O-])C(=O)[O-].[Fe+3]", "outcome": "inactive; multisex inactive"}
